The values below come from the supplement of paper PMC11208160.
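Also: IS621 recombinase and bridge RNA in Escherichia coli cells.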

The data set can be described thus: recombinant barcode read abundance after kanamycin selection (control-corrected) (log10(CPM+1)); higher = more efficient recombination; sequences stand for … in AGTGCAGAGAAAATCGGCCAGTTTTCTCTGCCTGCAGTCCGCATGCCGT…AGATTTATGCAGCGGACTGCCTTTCTCCCAAAGTGATAAACCGGACAGTATCATGGACCGGTTTTCCCGGTAATCCGTATTTGCAAGGTTGGTTTCACT; site = the 11-nt target. The procedure, abridged:
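Recombination efficiency was calculated from barcode counts at recombinant junctions, normalized to counts per million, averaged and corrected by the control. Each value is given as log10(CPM+1). The constructs were Gibson-cloned oligos (promoter, target, barcode, J23119-driven first 104 bridge RNA bases) in a vector with the remaining 73 bp and a T7-inducible recombinase, co-electroporated into E. coli with a donor plasmid and plated in duplicate on chloramphenicol/ampicillin LB agar (control) or chloramphenicol/ampicillin/kanamycin with 0.1 mM IPTG.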
“TCGCACTCTTGGGTTCTAACCTGTTGCCT (site TCACACTCTAG)”: the “recombinant barcode read abundance (log10)” value amounted to 1.22.

With “TCGCACTCTTGGGTTCTAACCTGTTGCCT (site TCCCACTCTAG)”, the “recombinant barcode read abundance (log10)” value worked out at 0.22.

As to “TCGCACTCTTGGGTTCTAACCTGTTGCCT (site TCGCACTCTAG)”, the “recombinant barcode read abundance (log10)” value was 0.0694.

In the case of “TCGCACTCTTGGGTTCTAACCTGTTGCCT (site TCTCACTCTAG)”, the “recombinant barcode read abundance (log10)” value is 0.117.

For “TCGCACTCTTGGGTTCTAACCTGTTGCTA (site TCGCACACTTA)”, the “recombinant barcode read abundance (log10)” value is 0.262.

As for “TCGCACTCTTGGGTTCTAACCTGTTGCTA (site TCGCACTCTTA)”, the “recombinant barcode read abundance (log10)” value was found to be 0.911.

For “TCGCCTACTTGGGTTCTAACCTGTTGCCT (site TCGCCTACTAG)”, the “recombinant barcode read abundance (log10)” value came to 0.049.

With “TCGCCTACTTGGGTTCTAACCTGTTGCCT (site TCGCCTGCTAG)”, the “recombinant barcode read abundance (log10)” value was 0.396.

For the sequence “TCGCCTTCTTGGGTTCTAACCTGTTGCCT (site TAGCCTTCTAG)”, the “recombinant barcode read abundance (log10)” value came out at 0.482.

Consider “TCGCCTTCTTGGGTTCTAACCTGTTGCCT (site TCGCCTTCTAG)”, for which the “recombinant barcode read abundance (log10)” value worked out at 0.364.

As for “TCGCCTTCTTGGGTTCTAACCTGTTGCCT (site TGGCCTTCTAG)”, the “recombinant barcode read abundance (log10)” value was 0.654.

Turning to “TCGCCTTCTTGGGTTCTAACCTGTTGCCT (site TTGCCTTCTAG)”, the “recombinant barcode read abundance (log10)” value was 0.0934.

Turning to “TCGCGGCCTTGGGTTCTAACCTGTTGCCT (site ACGCGGCCTAG)”, the “recombinant barcode read abundance (log10)” value amounted to 0.153.

As to “TCGCGGCCTTGGGTTCTAACCTGTTGCCT (site CCGCGGCCTAG)”, the “recombinant barcode read abundance (log10)” value was 0.105.

For “TCGCGGCCTTGGGTTCTAACCTGTTGCCT (site GCGCGGCCTAG)”, the “recombinant barcode read abundance (log10)” value was 0.1.

As to “TCGCGGCCTTGGGTTCTAACCTGTTGCCT (site TCGCGGCCTAG)”, the “recombinant barcode read abundance (log10)” value turned out to be 0.0408.

“TCGCGTCCTTGGGTTCTAACCTGTTGCCG (site ACGCGTCCTCG)”: the “recombinant barcode read abundance (log10)” value came to 0.116.

Regarding “TCGCGTCCTTGGGTTCTAACCTGTTGCCG (site TCGCGTCCTCG)”, the “recombinant barcode read abundance (log10)” value was 1.41.

Turning to “TCGCTAGCTTGGGTTCTAACCTGTTGCGG (site CCGCTACCTCC)”, the “recombinant barcode read abundance (log10)” value is 1.83.

With “TCGCTAGCTTGGGTTCTAACCTGTTGCGG (site TCGCTAGCTCC)”, the “recombinant barcode read abundance (log10)” value was determined as 0.657.

In the case of “TCGGACACTTGGGTTCTAACCTGTTGCCA (site TCGGACACTTG)”, the “recombinant barcode read abundance (log10)” value was 1.89.

“TCGGACACTTGGGTTCTAACCTGTTGCCA (site TGGGACTCTTG)”: the “recombinant barcode read abundance (log10)” value is 0.0505.

Turning to “TCGGAGGCTTGGGTTCTAACCTGTTGCTG (site TCAGAGGCTCA)”, the “recombinant barcode read abundance (log10)” value was 0.774.

“TCGGAGGCTTGGGTTCTAACCTGTTGCTG (site TCCGAGGCTCA)”: the “recombinant barcode read abundance (log10)” value is 0.325.

Turning to “TCGGAGGCTTGGGTTCTAACCTGTTGCTG (site TCGGAGGCTCA)”, the “recombinant barcode read abundance (log10)” value came to 0.442.

Take “TCGGAGGCTTGGGTTCTAACCTGTTGCTG (site TCTGAGGCTCA)”: the “recombinant barcode read abundance (log10)” value came out at 0.374.

In the case of “TCGGAGTCTTGGGTTCTAACCTGTTGCCT (site TCGGAGTCTAA)”, the “recombinant barcode read abundance (log10)” value came to 0.128.

For the sequence “TCGGAGTCTTGGGTTCTAACCTGTTGCCT (site TCGGAGTCTAC)”, the “recombinant barcode read abundance (log10)” value was 1.06.

As to “TCGGAGTCTTGGGTTCTAACCTGTTGCCT (site TCGGAGTCTAG)”, the “recombinant barcode read abundance (log10)” value is 2.23.

On to “TCGGAGTCTTGGGTTCTAACCTGTTGCCT (site TCGGAGTCTAT)”, for which the “recombinant barcode read abundance (log10)” value was found to be 0.503.

For “TCGGATACTTGGGTTCTAACCTGTTGCCA (site TAGGACACTTG)”, the “recombinant barcode read abundance (log10)” value came out at 0.0618.

On to “TCGGATACTTGGGTTCTAACCTGTTGCCA (site TCGGATACTTG)”, for which the “recombinant barcode read abundance (log10)” value came out at 0.456.

For “TCGGCCTCTTGGGTTCTAACCTGTTGCTA (site CGTCTAGCTAT)”, the “recombinant barcode read abundance (log10)” value was determined as 0.054.

Consider “TCGGCCTCTTGGGTTCTAACCTGTTGCTA (site TCGGCCTCTTA)”, for which the “recombinant barcode read abundance (log10)” value is 0.877.

For the sequence “TCGGCGACTTGGGTTCTAACCTGTTGCCT (site TCAGCGACTAG)”, the “recombinant barcode read abundance (log10)” value came out at 0.11.

Consider “TCGGCGACTTGGGTTCTAACCTGTTGCCT (site TCCGCGACTAG)”, for which the “recombinant barcode read abundance (log10)” value was 0.0866.

Take “TCGGCGACTTGGGTTCTAACCTGTTGCCT (site TCGGCGACTAG)”: the “recombinant barcode read abundance (log10)” value was 0.0143.

For the sequence “TCGGCGACTTGGGTTCTAACCTGTTGCCT (site TCTGCGACTAG)”, the “recombinant barcode read abundance (log10)” value is 0.291.

“TCGGGAACTTGGGTTCTAACCTGTTGCCT (site TCGCGAACTAG)”: the “recombinant barcode read abundance (log10)” value is 0.502.

As to “TCGGGAACTTGGGTTCTAACCTGTTGCCT (site TCGGGAACTAG)”, the “recombinant barcode read abundance (log10)” value worked out at 0.34.

“TCGGGATCTTGGGTTCTAACCTGTTGCCT (site ACGGGATCTAG)”: the “recombinant barcode read abundance (log10)” value was found to be 0.365.

Consider “TCGGGATCTTGGGTTCTAACCTGTTGCCT (site CCGGGATCTAG)”, for which the “recombinant barcode read abundance (log10)” value is 0.184.

Regarding “TCGGGATCTTGGGTTCTAACCTGTTGCCT (site GCGGGATCTAG)”, the “recombinant barcode read abundance (log10)” value is 0.0188.

“TCGGGATCTTGGGTTCTAACCTGTTGCCT (site TCGGGATCTAG)”: the “recombinant barcode read abundance (log10)” value was found to be 1.05.

As for “TCGGTGACTTGGGTTCTAACCTGTTGCCT (site ACGGTGACTAG)”, the “recombinant barcode read abundance (log10)” value stood at 0.658.

As to “TCGGTGACTTGGGTTCTAACCTGTTGCCT (site CCGGTGACTAG)”, the “recombinant barcode read abundance (log10)” value came out at 0.0364.

Consider “TCGGTGACTTGGGTTCTAACCTGTTGCCT (site GCGGTGACTAG)”, for which the “recombinant barcode read abundance (log10)” value is 0.0708.

With “TCGGTGACTTGGGTTCTAACCTGTTGCCT (site TCGGTGACTAG)”, the “recombinant barcode read abundance (log10)” value was found to be 0.87.

For “TCGTACCCTTGGGTTCTAACCTGTTGCGA (site TCGAACCCTTC)”, the “recombinant barcode read abundance (log10)” value is 0.256.

For “TCGTACCCTTGGGTTCTAACCTGTTGCGA (site TCGCACCCTTC)”, the “recombinant barcode read abundance (log10)” value is 0.0875.

For the sequence “TCGTACCCTTGGGTTCTAACCTGTTGCGA (site TCGGACCCTTC)”, the “recombinant barcode read abundance (log10)” value worked out at 0.0548.

With “TCGTACCCTTGGGTTCTAACCTGTTGCGA (site TCGTACCCTTC)”, the “recombinant barcode read abundance (log10)” value is 0.617.

“TCGTCTCCTTGGGTTCTAACCTGTTGCTT (site TCGTCTCCTAA)”: the “recombinant barcode read abundance (log10)” value worked out at 0.

Consider “TCGTCTCCTTGGGTTCTAACCTGTTGCTT (site TTATCTCCTAA)”, for which the “recombinant barcode read abundance (log10)” value was determined as 0.386.

Consider “TCGTGCACTTGGGTTCTAACCTGTTGCCT (site TCGTGCACTAG)”, for which the “recombinant barcode read abundance (log10)” value was found to be 0.215.

Regarding “TCGTGCACTTGGGTTCTAACCTGTTGCCT (site TCGTGCCCTAG)”, the “recombinant barcode read abundance (log10)” value was 0.448.

As for “TCGTGCACTTGGGTTCTAACCTGTTGCCT (site TCGTGCGCTAG)”, the “recombinant barcode read abundance (log10)” value was 0.0852.

Regarding “TCGTGCACTTGGGTTCTAACCTGTTGCCT (site TCGTGCTCTAG)”, the “recombinant barcode read abundance (log10)” value worked out at 0.178.

On to “TCGTGCCCTTGGGTTCTAACCTGTTGCTT (site TCGTGCCCTAA)”, for which the “recombinant barcode read abundance (log10)” value came out at 0.0384.

Take “TCGTGCCCTTGGGTTCTAACCTGTTGCTT (site TCGTGCCCTCA)”: the “recombinant barcode read abundance (log10)” value amounted to 1.5.

As to “TCGTGCTCTTGGGTTCTAACCTGTTGCCT (site TCGTGCACTAG)”, the “recombinant barcode read abundance (log10)” value is 0.0667.

“TCGTGCTCTTGGGTTCTAACCTGTTGCCT (site TCGTGCCCTAG)”: the “recombinant barcode read abundance (log10)” value came to 0.282.

Take “TCGTGCTCTTGGGTTCTAACCTGTTGCCT (site TCGTGCGCTAG)”: the “recombinant barcode read abundance (log10)” value is 0.193.

In the case of “TCGTGCTCTTGGGTTCTAACCTGTTGCCT (site TCGTGCTCTAG)”, the “recombinant barcode read abundance (log10)” value was found to be 0.0894.

Take “TCTAACCCTTGGGTTCTAACCTGTTGCAT (site TCTAAACCTAT)”: the “recombinant barcode read abundance (log10)” value stood at 0.0654.

For the sequence “TCTAACCCTTGGGTTCTAACCTGTTGCAT (site TCTAACCCTAT)”, the “recombinant barcode read abundance (log10)” value is 0.251.

For “TCTAACCCTTGGGTTCTAACCTGTTGCAT (site TCTAAGCCTAT)”, the “recombinant barcode read abundance (log10)” value is 0.028.

As to “TCTAACCCTTGGGTTCTAACCTGTTGCAT (site TCTAATCCTAT)”, the “recombinant barcode read abundance (log10)” value was 0.0655.

As to “TCTAATCCTTGGGTTCTAACCTGTTGCAT (site TCTAAACCTAT)”, the “recombinant barcode read abundance (log10)” value was determined as 0.11.

On to “TCTAATCCTTGGGTTCTAACCTGTTGCAT (site TCTAACCCTAT)”, for which the “recombinant barcode read abundance (log10)” value turned out to be 0.0519.

On to “TCTAATCCTTGGGTTCTAACCTGTTGCAT (site TCTAAGCCTAT)”, for which the “recombinant barcode read abundance (log10)” value amounted to 0.0992.

As for “TCTAATCCTTGGGTTCTAACCTGTTGCAT (site TCTAATCCTAT)”, the “recombinant barcode read abundance (log10)” value was 0.025.

As for “TCTAATTCTTGGGTTCTAACCTGTTGCAT (site TCTAATTCTAT)”, the “recombinant barcode read abundance (log10)” value was found to be 0.0913.

Take “TCTAATTCTTGGGTTCTAACCTGTTGCAT (site TCTGACTCTAT)”: the “recombinant barcode read abundance (log10)” value was 0.186.

With “TCTAATTCTTGGGTTCTAACCTGTTGCGT (site TCTAATTCTAC)”, the “recombinant barcode read abundance (log10)” value is 0.095.

For “TCTAATTCTTGGGTTCTAACCTGTTGCGT (site TCTCATTCTAC)”, the “recombinant barcode read abundance (log10)” value stood at 0.162.

As to “TCTAATTCTTGGGTTCTAACCTGTTGCGT (site TCTGATTCTAC)”, the “recombinant barcode read abundance (log10)” value came out at 0.899.
